The subject of experiment [1] is AlCl3-induced AD rat model. As to the kind of experiment: Morris water maze (MWM) test in AlCl3-induced AD rats. In kind it is in vivo. The note with it: mean ± SE, n = 6. Here is the method:
(§1) All procedures were conducted conforming to the applicable National Institutes of Health standards and regulations for the Care and Use of Laboratory Animals. In this experiment, adult male Dawley rats in excellent condition weighing between 300 and 320 g were used. The animals were acquired from the Nile Company for Pharmaceuticals and Chemical Industries (Cairo, Egypt). They were placed in a controlled laboratory setting with unrestricted access to water, a temperature range of 24 to 26 °C, and 12 h a light–dark cycle. Three rats per cage were housed in polycarbonate cages that were individually packed with paper and encased with stainless steel wire.
Spatial learning and memory were inspected using the MWM test. Tap water was poured into a 150 cm diameter by 60 cm high circular water tank until it reached a depth of 30 cm (25 ± 2 °C). To make the water […], non-toxic white dye was applied. The east, west, north, and south quadrants of the pool were essentially separated into four equal sections. At a specific spot in the middle of one quadrant, an escape platform with a diameter of 10 cm was submerged 2 cm below the water’s surface. The platform stood in the exact same quadrant throughout the testing. The rats’ swimming route was recorded by a video camera situated above the pool. From a designated spot in each quadrant, each rat was submerged in the water with its back turned to the pool wall, and it was then left to swim to the platform. The rats received training sessions every day for three days in a row, with four trials conducted in each session. Before the next trial began, the animals were kept a maximum of 60 s to explore the hidden platform. After that, they were permitted to relax on it for 20 s. The rat was positioned gently on the platform and allowed 20 s to rest if it took longer than 60 s to locate it. The time taken to find the platform, or the escape latency, was documented. In order to do a probing test on the fourth day, the platform was detached away, and the rats were given 60 s to swim liberally. The time spent in the assigned quadrant was counted.

In experiment [2] the test system is AlCl3-induced AD rat model. As to the kind of experiment: Y-maze SAP test in AlCl3-induced AD rats. The note with it: mean ± SE, n = 6. The experiment is classed as in vivo. The method, then: as §1
One kind of short-term memory that SAP can represent is spatial working memory. Three arms, designated A, B, or C, were employed in a black hardwood Y-maze with a symmetrical triangular core space. Rats were briefly positioned at the edge of one arm and given 8 min to freely navigate around the maze. When the rat’s rear paws were fully inside the arm, the entries were counted. The following formula was used to determine SAP based on the total number of arm entries and alternations: SAP (%) = [number of alternations/(total arm entries − 2)] × 100 [94].

The results in this text go back to PMC12389534, “Unlocking Therapeutic Potential of Novel Thieno-Oxazepine Hybrids as Multi-Target Inhibitors of AChE/BChE and Evaluation Against Alzheimer’s Disease: In Vivo, In Vitro, Histopathological, and Docking Studies” (Pharmaceuticals, 2025).

Each structure is given as a SMILES string.

For the compound `COc1cc2c(cc1OC)C(=O)C(CC1CCN(Cc3ccccc3)CC1)C2` (stereo not drawn) [Donepezil, reference compound], the “Learning (s)” value in experiment [1] (escape latency) is on record as 14.78 ± 0.83 ^ab s. For the same compound, the “Memory (s)” value in experiment [1] (time spent in target quadrant) is given as 42.67 ± 0.61 ^ab s. In addition, in experiment [2], the SAP% is on record as 85 ± 0.58 ^ab %.
